Measured values as given in PubChem BioAssay AID328 (DTP/NCI, 2004).
Several values for one entry are separate records, joined by “and”; a condition that tells them apart may be missing. Identical values can stand only once. Inconclusive results and toxic doses are left out.

Test system: BDF1 mice, P388 leukemia ip, median survival T/C
Test: NCI In Vivo Anticancer Drug Screen. Data for tumor model P388 Leukemia (intraperitoneal) in B6D2F1 (BDF1) mice
Conditions: endpoint: median survival time, higher = longer survival
Method in brief: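 Survival ratio, drug arm over vehicle arm, in mice with a transplanted tumour.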

[1] = dose: 50.0 mg/kg/injection, schedule: Q04DX003 (ip), vehicle: saline
[2] = dose: 100.0 mg/kg/injection, schedule: Q04DX003 (ip), vehicle: saline
[3] = dose: 100.0 mg/kg/injection, schedule: Q01DX009 (ip), vehicle: saline with Tween-80
[4] = dose: 200.0 mg/kg/injection, schedule: Q01DX009 (ip), vehicle: saline with Tween-80

Q: What does the source list for `CC1NNC(=O)C1(Br)Br` (configuration not stated)?
A: T/C (dose: 1.56 mg/kg/injection, schedule: Q01DX009 (ip), vehicle: gum acacia): 113 % of control; T/C (dose: 3.12 mg/kg/injection, schedule: Q01DX009 (ip), vehicle: gum acacia): 113 % of control; T/C (dose: 6.25 mg/kg/injection, schedule: Q01DX009 (ip), vehicle: gum acacia): 94 % of control

Q: Which results are given for `NNC(=O)NO`?
A: T/C (dose: 25.0 mg/kg/injection, schedule: Q04DX003 (ip), vehicle: saline): 95 % of control; T/C [1]: 104 % of control; T/C [2]: 100 % of control

Q: Which results are given for `CC(C)c1ncc([N+](=O)[O-])n1C`?
A: T/C [3]: 100 % of control; T/C [4]: 87 % of control; T/C (dose: 400.0 mg/kg/injection, schedule: Q01DX009 (ip), vehicle: saline with Tween-80): 100 % of control

Q: `c1ccc2c3c(ccc2c1)OCCOCCOc1ccc2ccccc2c1-3` was tested. Which T/C (dose: 50.0 mg/kg/injection, schedule: Q01DX009 (ip), vehicle: saline with Tween-80) did it give?
A: 86 % of control

Q: And the T/C [3]?
A: 88 % of control

Q: What about the T/C [4] of the same compound?
A: 92 % of control

Q: Which results are given for `COc1cc(NS(C)(=O)=O)ccc1Nc1c2ccc([N+](=O)[O-])cc2nc2c(C)cccc12`?
A: T/C (dose: 0.1 mg/kg/injection, schedule: Q04DX003 (ip), vehicle: saline with Tween-80): 112 % of control; T/C (dose: 0.2 mg/kg/injection, schedule: Q04DX003 (ip), vehicle: saline with Tween-80): 120 % of control; T/C (dose: 0.86 mg/kg/injection, schedule: Q04DX003 (ip), vehicle: saline with Tween-80): 200 % of control; T/C (dose: 1.3 mg/kg/injection, schedule: Q04DX003 (ip), vehicle: saline with Tween-80): 165 % of control; T/C (dose: 2.0 mg/kg/injection, schedule: Q04DX003 (ip), vehicle: saline with Tween-80): 184 % of control; T/C (dose: 3.0 mg/kg/injection, schedule: Q04DX003 (ip), vehicle: saline with Tween-80): 230 % of control and 204 % of control; T/C (dose: 5.0 mg/kg/injection, schedule: Q04DX003 (ip), vehicle: saline with Tween-80): 241 % of control; T/C (dose: 8.0 mg/kg/injection, schedule: Q04DX003 (ip), vehicle: saline with Tween-80): 230 % of control and 241 % of control; T/C (dose: 12.0 mg/kg/injection, schedule: Q04DX003 (ip), vehicle: saline with Tween-80): 230 % of control; T/C (dose: 18.0 mg/kg/injection, schedule: Q04DX003 (ip), vehicle: saline with Tween-80): 123 % of control

Q: How did the T/C (dose: 2.0 mg/kg/injection, schedule: Q04DX003 (ip), vehicle: saline + alcohol) turn out when `CC[C@H]1CN2CCc3cc(OC)c(OC)cc3[C@@H]2C[C@@H]1C[C@H]1NCCc2c1[nH]c1ccc(O)cc21` was run?
A: 186 % of control

Q: What about the T/C (dose: 4.0 mg/kg/injection, schedule: Q04DX003 (ip), vehicle: saline + alcohol) of the same compound?
A: 183 % of control

Q: Which T/C (dose: 12.5 mg/kg/injection, schedule: Q01DX009 (ip), vehicle: saline) does the source give for `O=C(CSc1cc(-c2ccc(Cl)cc2)s[s+]1)c1ccc(Cl)cc1` here?
A: 109 % of control

Q: And the T/C (dose: 25.0 mg/kg/injection, schedule: Q01DX009 (ip), vehicle: saline)?
A: 89 % of control

Q: And the T/C (dose: 50.0 mg/kg/injection, schedule: Q01DX009 (ip), vehicle: saline)?
A: 89 % of control

Q: And the T/C [1]?
A: 97 % of control

Q: What about the T/C (dose: 100.0 mg/kg/injection, schedule: Q01DX009 (ip), vehicle: saline) of the same compound?
A: 101 % of control

Q: What about the T/C [2] of the same compound?
A: 90 % of control and 100 % of control and 105 % of control

Q: And the T/C (dose: 200.0 mg/kg/injection, schedule: Q01DX009 (ip), vehicle: saline)?
A: 107 % of control

Q: What about the T/C (dose: 200.0 mg/kg/injection, schedule: Q04DX003 (ip), vehicle: saline) of the same compound?
A: 97 % of control and 111 % of control

Q: And the T/C (dose: 300.0 mg/kg/injection, schedule: Q04DX003 (ip), vehicle: saline)?
A: 111 % of control

Q: What about the T/C (dose: 400.0 mg/kg/injection, schedule: Q04DX003 (ip), vehicle: saline) of the same compound?
A: 103 % of control

Q: What does the source list for `OCC[P+](c1ccccc1)(c1ccccc1)c1ccccc1`?
A: T/C (dose: 25.0 mg/kg/injection, schedule: Q01DX001 (ip), vehicle: saline): 108 % of control; T/C (dose: 50.0 mg/kg/injection, schedule: Q01DX001 (ip), vehicle: saline): 98 % of control

Q: With `Cc1c2oc3c(C)ccc(C(=O)NCCc4ccco4)c3nc-2c(C(=O)NCCc2ccco2)c(N)c1=O` as the compound, how does the T/C (dose: 100.0 mg/kg/injection, schedule: Q04DX003 (ip), vehicle: saline with Tween-80) read?
A: 102 % of control

Q: And the T/C (dose: 200.0 mg/kg/injection, schedule: Q04DX003 (ip), vehicle: saline with Tween-80)?
A: 99 % of control

Q: And the T/C (dose: 400.0 mg/kg/injection, schedule: Q04DX003 (ip), vehicle: saline with Tween-80)?
A: 96 % of control

Q: Which T/C (dose: 80.0 mg/kg/injection, schedule: Q01DX010 (ip), vehicle: saline) does the source give for `CC(=O)OC(C)(C)/C=C/C(=O)[C@](C)(O)[C@H]1[C@H](O)C[C@@]2(C)[C@@H]3CC=C4[C@@H](C[C@H](O)[C@H](O)C4(C)C)[C@]3(C)C(=O)C[C@]12C` here?
A: 109 % of control

Q: And the T/C (dose: 120.0 mg/kg/injection, schedule: Q01DX010 (ip), vehicle: saline)?
A: 122 % of control

Q: And the T/C (dose: 180.0 mg/kg/injection, schedule: Q01DX010 (ip), vehicle: saline)?
A: 118 % of control
